From patent US20180325914A1, “INCREASING STORAGE OF VITAMIN A, VITAMIN D AND/OR LIPIDS” (Salk Institute for Biological Studies, priority 2014, published 2018)

Legend:
[1] = system: BRD2, BRD3, BRD4 (BETs) occupancy on chromatin; format: cell-based, human; conditions: LX-2 cells; 500 nM, 16 hr
Experimental: Cells were then harvested for ChIP assay. The experimental procedure for ChIP was as previously described.
The procedure was as previously described^5,31. Briefly, short DNA reads were demultiplexed using the Illumina CASAVA v1.8.2. […] Only tags that map uniquely to the genome were considered for further analysis. Subsequent peak calling and motif analysis were conducted using HOMER, a software suite for ChIP-Seq analysis. The methods for HOMER, which are described below, have been implemented and are freely available on the internet (biowhat.ucsd.edu/homer/). One tag from each unique position was considered to eliminate peaks resulting from clonal amplification of fragments during the ChIP-Seq protocol. Peaks were identified by searching for clusters of tags within a sliding 200 bp window, requiring adjacent clusters to be at least 1 kb away from each other. The threshold for the number of tags that determine a valid peak was selected for a false discovery rate of <0.01, as empirically determined by repeating the peak finding procedure using randomized tag positions. […] Peaks are annotated to gene products by identifying the nearest RefSeq transcriptional start site. Visualization of ChIP-Seq results was achieved by uploading custom tracks onto the UCSC genome browser.
BETs are chromatin regulators^7.

[2] = system: primary HSCs; test: qRT-PCR gene expression in primary murine HSCs; format: cell-based, mouse; conditions: JQ1 500 nM, RT-qPCR
[3] = system: primary murine HSCs; test: Lipid droplet accumulation assay (BODIPY staining); format: cell-based, mouse; conditions: day 6, JQ1 500 nM
Experimental: Primary murine HSCs were seeded onto chamber slides (Nunc). […] Media was aspirated, cells were washed twice with PBS (Gibco) and fixed in 10% buffered formalin at room temperature for 15 minutes. Fixative was removed and cells were washed three times with PBS. […] Dye was removed and cells were washed three times with PBS, then mounted using Vectastain mounting medium (Vector Labs). Fluorescence was visualized through the GFP filter on a Leica DM5000B fluorescent microscope. Nuclear counterstaining was performed using DAPI (Vector).

[4] = system: primary HSCs; test: Cell proliferation assay (BrdU), primary HSCs; format: cell-based, mouse; conditions: JQ1 500 nM
From the text: BrdU-positive cells were counted under fluorescent microscope (Olympus, IX51).

[5] = system: C57BL/6J mice; test: CCl4 model of liver injury and fibrosis, preventive study; format: in vivo, mouse; conditions: JQ1 50 mg/kg IP
Experimental: (§1) The animals were terminated 72 hours after the final CCl4 injection and whole livers were collected for histological, cytological, biochemical and molecular analyses.
(§2) 5 μm sections of formalin-fixed liver were stained following standard hematoxylin-eosin (H&E) and Sirius Red methods and reviewed by a pathologist who was blinded to the experimental conditions. Fibrosis was scored using the Ishak modified histological activity index (HAI) scoring system. Liver fibrosis was also quantified using Image J software on 10 non-contiguous Sirius Red stained sections. […] fibrosis was quantified using hydroxyproline assay. All images were obtained using a high-resolution Leica DFC420 digital camera mounted on an Olympus microscope equipped with ×4/0.13, ×10/0.30, ×20/0.50 and ×40/0.75 UplanFL N plan objective lenses and processed with the Leica Application Suite. Tissue hydroxyproline content was measured using a kit from Biovision (K555-100).
(§3) Liver samples were deparaffinized and rehydrated in PBS. Following antigen retrieval with the target retrieval solution (Dako, Glostrup, Denmark), endogenous peroxidase activity was blocked by incubation with 0.3% hydrogen peroxide. […]

[6] = system: C57BL/6J mice; test: CCl4 model of liver fibrosis, therapeutic study; format: in vivo, mouse; conditions: JQ1 50 mg/kg IP
Experimental: as §1, §2, §3
Therefore, the ability of JQ1 to prevent progression of ongoing liver fibrosis was determined. […]

[7] = system: C57BL/6J mice; test: Serum alanine aminotransferase (ALT) assay in CCl4 model; format: in vivo, mouse; conditions: preventive CCl4 model; JQ1 50 mg/kg IP
Experimental: as §1
The ALT activity in mice serum was measured using a kit from Thermo Scientific (TR71121).

[8] = system: Pancreatic cancer cell lines (AsPc1, MIAPaCa2, PancT and P53 2.1.1); test: Viability of pancreatic cancer cell lines in astromal or stromal hydrogels (Cell TiterGlo); format: cell-based; conditions: 500 nM JQ1, 72 hours, astromal or stromal culture conditions
From the text: Pancreatic cancer cell lines (AsPc1, MIAPaCa2, PancT and P53 2.1.1) were embedded in HyStem®-C hydrogels (ESI-BIO) at a concentration of 5×10^5 cells/ml. For astromal hydrogels, Glycosil® and Extralink™ components were resuspended in degassed H2O per manufacturer's procotol, and Glycosil®+degassed H2O+Extralink™ were combined in a 1:1:1 ratio. For the stromal hydrogels, Glycosil®, Gelin-S® (denatured collagens), and Extralink™ components were resuspended in degassed H2O per manufacturer's procotol, and Glycosil®+Gelin-S®+Extralink™ were combined in a 1:1:1 ratio. Pancreatic cancer cells were resuspended in the hydrogels and seeded into 96-well plates, 100 μl/well (5×10^4 cells/well). Triplicate wells were seeded for each condition to be tested. After hydrogel polymerization was evident (30-45 minutes), DMEM+10% FBS was added to astromal wells and conditioned media from cancer-associated PSCs was added to stromal wells. Conditioned media was prepared by growing primary cancer-associated PSCs (grown out of human pancreatic tumors) to confluency, changing to fresh DMEM+10% FBS, then collecting the media after 48 hours and passing through a 0.45 um filter to clear debris. […] Viability assays were performed after 72 hours using the Cell TiterGlo reagent (Promega) according to the manufacturer's instructions, but with a 45 minute incubation to ensure efficient lysis in 3D cultures.

[9] = system: pro-fibrotic gene expression (COL1A1) in LX-2 cells; test: qRT-PCR of pro-fibrotic gene expression in LX-2 cells; conditions: JQ1 500 nM, 16 hr vs DMSO

Cc1sc2c(c1C)C(c1ccc(Cl)cc1)=N[C@@H](CC(=O)OC(C)(C)C)c1nnc(C)n1-2 [JQ1, (S)-tert-butyl 2-(4-(4-chlorophenyl)-2,3,9-trimethyl-6H-thieno[3,2-f][1,2,4]triazolo[4,3-a][1,4]diazepin-6-yl)acetate]
BET occupancy at the COL1A1 enhancer locus (ChIP) [1]: significantly diminished
PAF1 and CDK9 (elongation cofactors) on chromatin [1]: displaced
occupancy of BETs on chromatin (ChIP-Seq) [1]: dramatically reduces
recruitment of serine 2 phosphorylated form (S2p) of RNA Pol II [1]: specific decrease
sensitivity of BRD4 occupancy on super-enhancer regions to reduction, versus control enhancer regions [1]: more sensitive
serine 5 Pol II phospho-form (S5p) [1]: little change
Ccnd2 and Myc expression [2]: without perturbing
induction of Pdgfrb and Ccnd1 during HSC activation [2]: disrupted induction
morphology, Acta2 distribution and lipid content of treated cells [3]: closely resembled quiescent (day 1) cells
BrdU incorporation into activated HSCs [4]: significant decrease
liver fibrosis and markers of HSC activation ([5]; CCl4/JQ1 co-treated vs CCl4 mice, four weeks, Sirius red, hydroxyproline, Acta2, Ishak score): dramatic reduction
CCl4-induced key fibrotic marker genes in liver (mRNA-Seq) [5]: significant suppression
progression of liver fibrosis (histological scoring, Sirius red, hydroxyproline, marker gene expression) ([6]; CCl4 three weeks, then CCl4/JQ1 co-treatment for three weeks): blocked the progression
CCl4-induced HSC activation (quantitative Acta2 immunohistochemistry) ([6]; chronic CCl4): dramatically reduced
liver injury due to CCl4 assessed by serum ALT [7]: not significantly impacted
growth of pancreatic cancer cell lines in vitro [8]: significantly reduced
repression of COL1A1 [9]: 4.5 fold
